ChEMBL document CHEMBL5329192, “Synthesis, biological activities, and future perspectives of steroidal monocyclic pyridines” (RSC Med Chem, 2023)

Key:
PC-3 [1] = experiment: Cytotoxicity against human PC-3 cells assessed as reduction in cell viability incubated for 48 hrs by SRB assay; assay type: toxicity, cell-based; details: PC-3, 48 h
[2] = Cytotoxicity against human RWPE-1 cells assessed as reduction in cell viability incubated for 48 hrs by SRB assay; assay type: toxicity, cell-based
HeLa [3] = experiment: Antiproliferative activity against human HeLa cells assessed as reduction in cell viability by MTT assay; assay type: functional, cell-based
[4] = Antiproliferative activity against human […] cells assessed as reduction in cell viability by MTT assay; assay type: functional, cell-based
[5] = Selectivity index, ratio of CC50 for cytotoxicity against human HEp-2 cells to EC50 for antiviral activity against Respiratory syncytial virus infected in human HEp-2 cells; assay type: toxicity, cell-based; details: read-out: Ratio CC50/EC50
[6] = Cytotoxicity against human HEp-2 cells assessed as reduction in cell viability incubated for 48 hrs by MTT assay; assay type: toxicity, cell-based
[7] = tested on: Respiratory syncytial virus; experiment: Antiviral activity against Respiratory syncytial virus infected in human HEp-2 cells assessed as inhibition of virus-induced cytopathic effect measured after 6 days by CellTiter-Glo assay; assay type: functional, organism-based; details: HEp-2, 144 h
MGC-803 [8] = experiment: Antiproliferative activity against human MGC-803 cells assessed as cell growth inhibition measured after 48 hrs by MTT assay; assay type: functional, cell-based; details: MGC-803, 48 h
PC-3 [9] = experiment: Cytotoxicity against human PC-3 cells assessed as reduction in cell viability incubated for 72 hrs by MTT assay; assay type: functional, cell-based; details: PC-3, 72 h
MGC-803 [10] = experiment: Cytotoxicity against human MGC-803 cells assessed as reduction in cell viability incubated for 72 hrs by MTT assay; assay type: functional, cell-based; details: MGC-803, 72 h
MCF7 [11] = experiment: Antiproliferative activity against human MCF7 cells assessed as reduction in cell growth incubated for 48 hrs by MTT assay; assay type: functional, cell-based; details: MCF7, 48 h
MCF7 [12] = experiment: Cytotoxicity against human MCF7 cells assessed as reduction in cell viability incubated for 72 hrs by MTT assay; assay type: functional, cell-based; details: MCF7, 72 h
SK-OV-3 = experiment: Antiproliferative activity against human SK-OV-3 cells assessed as reduction in cell growth incubated for 48 hrs by MTT assay; assay type: functional, cell-based; details: SK-OV-3, 48 h
EC9706 [13] = experiment: Antiproliferative activity against human EC9706 assessed as reduction in cell proliferation incubated for 72 hrs by MTT assay; assay type: functional, cell-based; details: EC9706, 72 h
HeLa [14] = experiment: Antiproliferative activity against human HeLa cells assessed as reduction in cell growth incubated for 48 hrs by MTT assay; assay type: functional, cell-based
A549 = experiment: Cytotoxicity against human A549 cells assessed as reduction in cell viability incubated for 72 hrs by MTT assay; assay type: functional, cell-based; details: A549, 72 h
HepG2 = experiment: Antiproliferative activity against human HepG2 cells assessed as reduction in cell growth incubated for 48 hrs by MTT assay; assay type: functional, cell-based; details: HepG2, 48 h
ECa-109 cell line [15] = experiment: Antiproliferative activity against human EC109 cells assessed as reduction in cell proliferation incubated for 72 hrs by MTT assay; assay type: functional, cell-based; details: ECa-109, 72 h
[16] = Acute toxicity in ip dosed albino rat administered twice daily for 14 days; assay type: organism-based; details: in vivo, time 14 day
Rattus norvegicus [17] = experiment: Anti-androgen activity against albino rat assessed as mass gain of prostate gland at 0.1 mg/kg, sc administered for 7 days; assay type: functional; details: time 7 day
Rattus norvegicus [18] = experiment: Anti-anabolic activity against albino rat assessed as mass gain of levator ani-muscle at 0.1 mg/kg, sc administered for 7 days; assay type: functional; details: time 7 day
Rattus norvegicus [19] = organism: Rattus norvegicus; experiment: Ratio of anti-anabolic activity against albino rat assessed as reduction in mass of levator ani-muscle to anti-androgenic activity against albino rat assessed as mass gain of prostate gland; assay type: functional
ECa-109 cell line [20] = experiment: Cytotoxicity against human EC109 cells assessed as reduction in cell growth incubated for 48 hrs by MTT assay; assay type: functional, cell-based; details: ECa-109, 48 h
EC9706 [21] = experiment: Cytotoxicity against human EC9706 cells assessed as reduction in cell growth incubated for 48 hrs by MTT assay; assay type: functional, cell-based; details: EC9706, 48 h
MGC-803 [22] = experiment: Cytotoxicity against human MGC-803 cells assessed as reduction in cell growth incubated for 48 hrs by MTT assay; assay type: functional, cell-based; details: MGC-803, 48 h

What does the source list for CCOC(=O)c1cc2c(nc1-c1ccccc1)[C@@]1(C)CC[C@H]3[C@@H](CC=C4C[C@@H](O)CC[C@@]43C)[C@@H]1C2?
IC50 (PC-3 [1]): 197 µM; IC50 at 48 h [2]: 189 µM

For CCCc1cc2c(cn1)C[C@H]1[C@@H]3CC=C4C[C@@H](OC(C)=O)CC[C@]4(C)[C@H]3CC[C@]21C, which IC50 (HeLa [3]) is on record?
The IC50 was no less than 100 µM.

What about the IC50 [4] of the same compound?
Its IC50 is no less than 100 µM.

Which selectivity ratio [5] does the source give for CC(=O)O[C@H]1CC[C@@]2(C)C(=CC[C@H]3[C@@H]4CC[C@H](c5cc(-c6ccccc6F)c(C#N)c(N)n5)[C@@]4(C)CC[C@@H]32)C1 here?
Its selectivity ratio is 23.2.

And the CC50 at 48 h [6]?
Its CC50 at 48 h is 288 µM.

What about the EC50 [7] of the same compound?
The EC50 was 12.4 µM.

Which results are given for CCOC(=O)c1cc2c(nc1-c1ccccc1)[C@@]1(C)CC[C@H]3[C@@H](CC=C4C[C@@H](OC(C)=O)CC[C@@]43C)[C@@H]1C2?
IC50 (PC-3 [1]): 437 µM; IC50 at 48 h [2]: 375 µM

With COc1cccc2c1C(=O)c1c(O)c3c(c(O)c1C2=O)C[C@@](O)(C(=O)CO)C[C@@H]3O[C@H]1C[C@H](N)[C@H](O)[C@H](C)O1 [DOXORUBICIN] as the compound, how does the IC50 [4] read?
The IC50 was 9 µM.

For CCCCc1cc2c(cn1)C[C@H]1[C@@H]3CC=C4C[C@@H](OC(C)=O)CC[C@]4(C)[C@H]3CC[C@]21C, which IC50 (HeLa [3]) is on record?
The IC50 was no less than 100 µM.

And the IC50 [4]?
Its IC50 is no less than 100 µM.

With CC(=O)O[C@H]1CC[C@@]2(C)C(=CC[C@@H]3[C@@H]2CC[C@]2(C)c4cc(-c5ccc(C)cc5)ncc4C[C@@H]32)C1 as the compound, how does the IC50 (HeLa [3]) read?
The IC50 was no less than 100 µM.

What about the IC50 [4] of the same compound?
The IC50 was no less than 100 µM.

Which IC50 (MGC-803 [8]) does the source give for O=c1[nH]cc(F)c(=O)[nH]1 [FLUOROURACIL] here?
Its IC50 is 26.4 µM.

What about the IC50 (PC-3 [9]) of the same compound?
The IC50 was 6.7 µM.

What about the IC50 (MGC-803 [10]) of the same compound?
Its IC50 is 15.7 µM.

And the IC50 (MCF7 [11])?
The IC50 was 25.4 µM.

And the IC50 (MCF7 [12])?
The IC50 was 10 µM.

And the IC50 (SK-OV-3)?
The IC50 was 25 µM.

And the IC50 (EC9706 [13])?
The IC50 was 2.45 µM.

And the IC50 (HeLa [14])?
The IC50 was 18.8 µM.

What about the IC50 (A549) of the same compound?
The IC50 was 5.7 µM.

What about the IC50 (HepG2) of the same compound?
The IC50 was 66.8 µM.

What about the EC50 (ECa-109 cell line [15]) of the same compound?
The EC50 was 21.1 µM.

Which LD50 at 336 h [16] does the source give for C[C@]12CC[C@H]3[C@@H](CCC4=CC(=O)CC[C@@]43C)[C@@H]1CC[C@@H]2O [TESTOSTERONE] here?
Its LD50 at 336 h is 2750 mg/kg.

What about the Activity (Rattus norvegicus [17]) of the same compound?
Its Activity is 0.76 g.

And the Activity (Rattus norvegicus [18])?
The Activity was 0.204 g.

And the Ratio (Rattus norvegicus [19])?
The Ratio was 0.27.

What does the source list for C[C@]12CCC(=O)C[C@@H]1CC[C@@H]1[C@@H]2CC[C@]2(C)[C@@H](O)CC[C@@H]12 [STANOLONE]?
LD50 at 336 h [16]: 3410 mg/kg; Activity (Rattus norvegicus [17]): 0.2 g; Activity (Rattus norvegicus [18]): 0.18 g

Which results are given for CC(=O)O[C@H]1CC[C@@]2(C)C(=CC[C@@H]3[C@@H]2CC[C@]2(C)c4nc(N)c(C#N)cc4C[C@@H]32)C1?
IC50 (ECa-109 cell line [20]): 20.5 µM; IC50 (EC9706 [21]): 58.4 µM; IC50 (MGC-803 [22]): 16.3 µM

Which IC50 (PC-3 [1]) does the source give for CCOC(=O)c1cc2c(nc1C(=O)OCC)[C@@]1(C)CC[C@H]3[C@@H](CC=C4C[C@@H](O)CC[C@@]43C)[C@@H]1C2 here?
Its IC50 is 95.4 µM.

What about the IC50 at 48 h [2] of the same compound?
The IC50 at 48 h was 501 µM.

What does the source list for NC(=O)c1ncn([C@@H]2O[C@H](CO)[C@@H](O)[C@H]2O)n1 [RIBAVIRIN]?
selectivity ratio [5]: 32.5; CC50 at 48 h [6]: 653 µM; EC50 [7]: 20.1 µM

For CCOC1(OCC)NC(c2ccc(F)cc2)=C2C[C@H]3[C@@H]4CC[C@H]5C[C@@H](O)CC[C@]5(C)[C@H]4CC[C@]3(C)C2=C1C#N, which LD50 at 336 h [16] is on record?
The LD50 at 336 h was 4900 mg/kg.

What about the Activity (Rattus norvegicus [17]) of the same compound?
Its Activity is 0.432 g.

What about the Activity (Rattus norvegicus [18]) of the same compound?
The Activity was 0.622 g.

And the Ratio (Rattus norvegicus [19])?
The Ratio was 1.44.

Which IC50 (HeLa [3]) does the source give for CC(=O)O[C@H]1CC[C@@]2(C)C(=CC[C@@H]3[C@@H]2CC[C@]2(C)c4cc(-c5ccccc5)ncc4C[C@@H]32)C1 here?
The IC50 was no less than 100 µM.

And the IC50 [4]?
Its IC50 is no less than 100 µM.

With CCOc1nc(-c2ccc(F)cc2)c2c(c1C#N)[C@@]1(C)CC[C@H]3[C@@H](CC[C@H]4C[C@@H](O)CC[C@@]43C)[C@@H]1C2 as the compound, how does the LD50 at 336 h [16] read?
Its LD50 at 336 h is 4890 mg/kg.

And the Activity (Rattus norvegicus [17])?
The Activity was 0.123 g.

What about the Activity (Rattus norvegicus [18]) of the same compound?
The Activity was 0.191 g.

What about the Ratio (Rattus norvegicus [19]) of the same compound?
The Ratio was 1.55.
